SMILES strings stand for the structures.

This assay addresses T1, KDM4A (Homo sapiens, UniProt O75164).
T1 construct: N-terminal His-tagged KDM4A^1-350 was purchased from BPS Biosciences; His (N); purchased BPS Biosciences
T1 sequence (O75164 1-350): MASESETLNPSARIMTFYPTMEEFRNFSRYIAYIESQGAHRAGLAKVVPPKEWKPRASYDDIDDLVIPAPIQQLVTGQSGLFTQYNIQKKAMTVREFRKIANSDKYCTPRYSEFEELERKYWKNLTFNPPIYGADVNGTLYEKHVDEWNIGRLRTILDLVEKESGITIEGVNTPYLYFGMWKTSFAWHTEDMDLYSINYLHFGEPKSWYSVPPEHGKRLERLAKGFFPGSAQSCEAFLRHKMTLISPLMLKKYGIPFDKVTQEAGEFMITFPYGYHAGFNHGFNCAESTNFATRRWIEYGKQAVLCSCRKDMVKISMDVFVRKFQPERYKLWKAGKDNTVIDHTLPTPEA
The assay can be described thus: KDM4A Assay (SAMDI mass spectrometry demethylase assay). In kind it is biochemical. Conditions: N-terminal His-tagged KDM4A 1-350; class symbols; read-out: 4A IC50. On the procedure: N-terminal His-tagged KDM4A^1-350 was purchased from BPS Biosciences. Peptides were synthesized by BioPeptide and all other reagents were purchased from Sigma-Aldrich at the highest level of purity possible. Assays were performed in a 50 μL volume in 384-well V-bottom polypropylene microplates (Greiner) at 25° C. Optimized 1× assay buffer was 50 mM HEPES (pH=8.0), 100 μM sodium ascorbate, 20 mM NaCl, 10 μM ammonium iron sulfate, 1 mM tris(2-carboxyethyl)phosphine (TCEP), 0.002% Tween-20, and 0.005% BSG. For compound screening, 35 μL of KDM4A^1-350 (final concentration, f.c.=5 nM) was added using a Multidrop Combi and preincubated with 1 μL of test compound (f.c.=10 μM) for 30 minutes and subsequently 15 μL of peptide with the following sequence NH2-ARTKQTAR(Kme2)STGGKAPRKQLA(K-Ahx-Biotin)-amide (f.c.=600 nM) and 2-oxoglutarate (f.c.=5 μM) was added by Multidrop Combi to begin the reaction. Reactions proceeded for 120 minutes and were stopped by the addition of 5 μL of formic acid (f.c.=0.5%) using a Multidrop Combi and then analyzed by SAMDI Tech Inc.
SAMDI Tech analyzed all reactions using self-assembled monoloayer desorption/ionization technology as previously described (Gerard-Levin Z A, Scholle M D, Eisenberg A H, et al.: High-throughput screening of small molecule libraries using SAMDI mass spectrometry. ACS Comb Sci 2011; 13:347-350). Briefly, a 2 μL sample of the stopped demethylase reactions were transferred to a SAMDI array coated with 384 biotin-neutravidin spots using a 384-channel pipet station. The SAMDI arrays were incubated for 1 h in a humidified chamber, followed by washing of the surface with deionized ultra-filtered water (DIUF) and drying under nitrogen. A matrix of 30 mg/ml 2′,4′,6′-Trihydroxyacetophenone monohydrate (THAP) in acetone was applied using a TPP Mosquito 1.2 μL tip by dispensing 50 nL on each of the 384 spots on the array. SAMDI-MS was run using acquisition method ReflectorPositiveUTX. The % conversion of substrate to product was calculated using the AUC of the substrate and product peptide peaks.
An IC50 value was determined by contacting various concentrations of a test compound with one of the KDM4A, KDM4C or KDMSC enzyme constructs and plotting a dose-response curve which associates the amount of inhibition of the enzyme relative to the concentration of the test compound. From the curve, the IC50 value (which represents the concentration of the test compound necessary to inhibit maximal enzymatic activity by 50%) was determined. Additionally, the slope of the linear range of the plotted curve, which indicates the speed with which the curve rises between the minimum and maximum, was calculated.
Take `Cc1nn(C2CCCNCC2)cc1Nc1cnccc1C(=O)O` (single isomer, unassigned) [Compound 114]: the IC50 (as a rule, the point on the concentration scale where inhibition reaches its midpoint) was 100 to 1000 nM.

For the compound `Cc1nn(C2CCCNCC2)cc1Nc1cnccc1C(=O)O` (single isomer, unassigned) [Compound 116], the 50% inhibitory concentration (IC50) was in the range of 100 to 1000 nM.

For the compound `Cn1ncc(-c2ccccc2)c1Nc1cnccc1C(=O)O` [Compound 1], the IC50 is 100 to 1000 nM.

`Cc1cn(-c2ccccc2)c(Nc2cnccc2C(=O)O)n1` [Compound 2]: the IC50 fell in the range of 100 to 1000 nM.

As to `Cn1cc(-c2ccccc2)c(Nc2cnccc2C(=O)O)n1` [Compound 3], the IC50 lay within 1000 to 10000 nM.

Turning to `Cn1nc(-c2ccccc2)cc1Nc1cnccc1C(=O)O` [Compound 6], the IC50 was 100 to 1000 nM.

With `Cn1cc(-c2ccc(F)cc2)c(Nc2cnccc2C(=O)O)n1` [Compound 7, 3-((4-(4-Fluorophenyl)-1-methyl-1H-pyrazol-3-yl)amino) isonicotinic acid], the 50% inhibitory concentration (IC50) was in the range of 100 to 1000 nM.

For `Cn1ncc(-c2ccc(F)cc2)c1Nc1cnccc1C(=O)O` [Compound 8, 3-((4-(4-fluorophenyl)-1-methyl-1H-pyrazol-5-yl)amino) isonicotinic acid], the IC50 was 1000 to 10000 nM.

For `Cn1cc(-c2cccc(F)c2)c(Nc2cnccc2C(=O)O)n1` [Compound 9, 3-((4-(3-Fluorophenyl)-1-methyl-1H-pyrazol-3-yl)amino) isonicotinic acid], the IC50 was in the range of 100 to 1000 nM.

Turning to `Cn1ncc(-c2cccc(F)c2)c1Nc1cnccc1C(=O)O` [Compound 10, 3-((4-(3-Fluorophenyl)-1-methyl-1H-pyrazol-5-yl)amino) isonicotinic acid], the IC50 was 1000 to 10000 nM.

Consider `Cn1cc(-c2ccccc2F)c(Nc2cnccc2C(=O)O)n1` [Compound 11, 3-((4-(2-Fluorophenyl)-1-methyl-1H-pyrazol-3-yl)amino) isonicotinic acid], for which the IC50 lay in the range of 100 to 1000 nM.

Consider `Cn1ncc(-c2ccccc2F)c1Nc1cnccc1C(=O)O` [Compound 12, 3-((4-(2-fluorophenyl)-1-methyl-1H-pyrazol-5-yl)amino) isonicotinic acid], for which the half-maximal inhibitory concentration (IC50) lay in the range of 100 to 1000 nM.

For `Cn1cc(Nc2cnccc2C(=O)O)c(-c2ccccc2)n1` [Compound 13, 3-((1-methyl-3-phenyl-1H-pyrazol-4-yl)amino) isonicotinic acid], the IC50 fell in the range of 1000 to 10000 nM.

For the compound `O=C(O)c1ccncc1Nc1nn(CCN2CCC(F)(F)CC2)cc1-c1ccccc1` [Compound 14, 3-((1-(2-(4,4-Difluoropiperidin-1-yl)ethyl)-4-phenyl-1H-pyrazol-3-yl)amino)isonicotinic acid], the IC50 lay within 100 to 1000 nM.

As to `O=C(O)c1ccncc1Nc1c(-c2ccccc2)cnn1CCN1CCC(F)(F)CC1` [Compound 15, 3-((1-(2-(4,4-difluoropiperidin-1-yl)ethyl)-4-phenyl-1H-pyrazol-5-yl)amino)isonicotinic acid], the IC50 lay within 10000 to 100000 nM.

As to `Cc1n[nH]c(C)c1Nc1cnccc1C(=O)O` [Compound 16, 3-((3,5-Dimethyl-1H-pyrazol-4-yl)amino)isonicotinic acid], the IC50 fell in the range of 1000 to 10000 nM.

Take `O=C(O)c1ccncc1Nc1cn(CCN2CCC(F)(F)CC2)nc1-c1ccccc1` [Compound 17, 3-((1-(2-(4,4-Difluoropiperidin-1-yl)ethyl)-3-phenyl-1H-pyrazol-4-yl)amino)isonicotinic acid]: the IC50 lay within 1000 to 10000 nM.

Take `O=C(O)c1ccncc1Nc1cnn(CCN2CCC(F)(F)CC2)c1-c1ccccc1` [Compound 18, 3-((1-(2-(4,4-difluoropiperidin-1-yl)ethyl)-5-phenyl-1H-pyrazol-4-yl)amino)isonicotinic acid]: the IC50 was 100 to 1000 nM.

For the compound `Cc1nn(-c2ccccc2)cc1Nc1cnccc1C(=O)O` [Compound 19, 3-((3-Methyl-1-phenyl-1H-pyrazol-4-yl)amino)isonicotinic acid], the IC50 lay within 1 to 100 nM.

In the case of `Cc1c(Nc2cnccc2C(=O)O)cnn1-c1ccccc1` [Compound 20, 3-((5-methyl-1-phenyl-1H-pyrazol-4-yl)amino)isonicotinic acid], the IC50 lay in the range of 1 to 100 nM.

Consider `O=C(O)c1ccncc1Nc1cc(-c2ccccc2)nn1-c1ccccc1` [Compound 21, 3-((1,3-Diphenyl-1H-pyrazol-5-yl)amino)isonicotinic acid], for which the IC50 lay in the range of 1000 to 10000 nM.

For the compound `CC(C)n1nc(-c2ccccc2)cc1Nc1cnccc1C(=O)O` [Compound 22, 3-((1-Isopropyl-3-phenyl-1H-pyrazol-5-yl)amino)isonicotinic acid], the IC50 lay within 100 to 1000 nM.

Turning to `O=C(O)c1ccncc1Nc1cc(-c2ccccc2)nn1C1CCOCC1` [Compound 23, 3-((3-Phenyl-1-(tetrahydro-2H-pyran-4-yl)-1H-pyrazol-5-yl)amino)isonicotinic acid], the IC50 fell in the range of 1000 to 10000 nM.

For `Cn1nc(-c2ccc(Cl)cc2)cc1Nc1cnccc1C(=O)O` [Compound 24, 3-((3-(4-Chlorophenyl)-1-methyl-1H-pyrazol-5-yl)amino) isonicotinic acid], the IC50 was 100 to 1000 nM.

Consider `Cn1nc(-c2cccc(Cl)c2)cc1Nc1cnccc1C(=O)O` [Compound 25, 3-((3-(3-chlorophenyl)-1-methyl-1H-pyrazol-5-yl)amino) isonicotinic acid], for which the IC50 was 100 to 1000 nM.

As to `NCCn1nc(-c2ccccc2)cc1Nc1cnccc1C(=O)O` [Compound 26], the IC50 was in the range of 1000 to 10000 nM.

Take `COCCn1nc(-c2ccccc2)cc1Nc1cnccc1C(=O)O` [Compound 27, 3-((1-(2-Methoxyethyl)-3-phenyl-1H-pyrazol-5-yl)amino) isonicotinic acid]: the IC50 was in the range of 100 to 1000 nM.

`Cc1c(Nc2cnccc2C(=O)O)cnn1Cc1ccccc1` [Compound 33, 3-((1-benzyl-5-methyl-1H-pyrazol-4-yl)amino)isonicotinic acid]: the IC50 was 1 to 100 nM.

For `CN1CCN(CCn2cc(-c3ccccc3)c(Nc3cnccc3C(=O)O)n2)CC1` [Compound 34, 3-((1-(2-(4-Methylpiperazin-1-yl)ethyl)-4-phenyl-1H-pyrazol-3-yl)amino)isonicotinic acid], the IC50 lay in the range of 1000 to 10000 nM.

`CN1CCN(CCn2ncc(-c3ccccc3)c2Nc2cnccc2C(=O)O)CC1` [Compound 35, 3-((1-(2-(4-methylpiperazin-1-yl)ethyl)-4-phenyl-1H-pyrazol-5-yl)amino)isonicotinic acid]: the IC50 fell in the range of 100 to 1000 nM.

For `CCn1nc(-c2ccccc2)cc1Nc1cnccc1C(=O)O` [Compound 36, 3-((1-Ethyl-3-phenyl-1H-pyrazol-5-yl)amino)isonicotinic acid], the IC50 lay in the range of 100 to 1000 nM.

Consider `N[C@H]1CC[C@@H](n2nc(-c3ccccc3)cc2Nc2cnccc2C(=O)O)CC1` [Compound 37, 3-((1-((cis)-4-aminocyclohexyl)-3-phenyl-1H-pyrazol-5-yl)amino)isonicotinic acid], for which the IC50 fell in the range of 100 to 1000 nM.

Regarding `N[C@H]1CC[C@H](n2nc(-c3ccccc3)cc2Nc2cnccc2C(=O)O)CC1` [Compound 38, 3-((1-((trans)-4-aminocyclohexyl)-3-phenyl-1H-pyrazol-5-yl)amino)isonicotinic acid], the IC50 lay within 10000 to 100000 nM.

Regarding `O=C(O)c1ccncc1Nc1cc(-c2ccccc2)nn1[C@H]1CC[C@H](O)CC1` [Compound 39, 3-((1-((trans)-4-hydroxycyclohexyl)-3-phenyl-1H-pyrazol-5-yl)amino)isonicotinic acid], the IC50 was 1000 to 10000 nM.

Turning to `O=C(O)c1ccncc1Nc1cc(-c2ccccc2)nn1[C@H]1CC[C@@H](O)CC1` [Compound 40, 3-((1-((cis)-4-Hydroxycyclohexyl)-3-phenyl-1H-pyrazol-5-yl)amino)isonicotinic acid], the IC50 fell in the range of 1000 to 10000 nM.

Regarding `O=C(O)c1ccncc1Nc1cn(-c2ccccc2)nc1-c1ccccc1` [Compound 41, 3-((1,3-Diphenyl-1H-pyrazol-4-yl)amino)isonicotinic acid], the IC50 is 100 to 1000 nM.

For the origin of these results see US20170291890A1 (Epizyme, Inc., priority 2014, published 2017).
